Data published in paper PMC4728560 (Scientific Reports, 2016).

Test system: BAX
Test: In cellulo BRET between TCTP and YFP-fused BAX
Format: cell-based
Conditions: MCF-7 cells; donor TCTP, acceptor YFP-fused BAX
Protocol: BRET assays were performed as indicated in Bah et al.[41]. See Supplementary Information for full details.
-3Δ before cloning into a pnEA -TH plasmid for expression of an N-terminal 6His fusion protein using NdeI and BamHI restriction sites25. The cDNA of human Bcl-xL protein, target gene bank number BC019307, was ordered from PlasmID (DANA-FARBER/HARVARD CANCER CENTER). Bcl-xL(Δ27-81ΔCT) (deletion of residues 27-81 and C-terminal 24 residues) was cloned in a pnEA-TH25 plasmid for expression as a N-terminal 6His fusion protein. Primers used for the deletion of the C-terminal part are 5'- […]
TTTCG-3', including NdeI and BglII restriction sites respectively. […]
BRET assays were performed as indicated in Bah et al.26. […] Light emissions at 475 nm and 530 nm were measured sequentially using the Mithras ﬂuorescence luminescence detector […]
LB 940 (Berthold, Thoiry, France) after adding the luciferase substrate coelenterazine H (Uptima, MontLucon, France) at a ﬁnal concentration of […]. BRET signals (mB.U,milliBRET Unit) were determined by calculating the ra tio of the light emitted by the acceptor (530 nm) over the light emitted by the donor (475 nm). Background BRET signals, determined by transient transfection of pCMV-Bcl-xL or pCMV-Bax instead of the corresponding pEYFP plasmids, were subtracted from YFP-specific BRET signals. […]

With “TCTP: Translationally Controlled Tumor Protein (TCTP/tpt1), recombinant full-length” the “BRET signals with BAX” value was “no specific BRET signals”.
